Experimental data as given in patent publication US6303612A, “Derivatives of hydroxyphenylsulfanylbenzoic and hydroxphenylsulfanylarylacetic acids” (Leciva, A.S., priority 1998, dated 2001).
Values after ≈ are worked out from the molar mass of the structure shown. Where a name gives a salt, the structure may show the parent alone. Read-outs that look alike come from different tables or passages of the source.

Experiments:
[1] = system: LTB4 production in rat polymorphonuclear cells; assay: Ex vivo inhibition of LTB4 production (LTB4 biosynthesis); format: cell-based; conditions: for Inh. of LTB4 biosynth., %: at 30 μg (%/μg); for IC50: Rattus norvegicus, read-out: Inh. of LTB4 biosynth., IC50
Protocol: Ex vivo Inhibition of LTB4 Production The production of LTB4 was determined in rat polymorphonuclear cells from pleural exudate elicited by heat-activated rat serum (Palmer R. M. J., Salmon J. A.: Immunology 50, 65 (1983)). The cells were stimulated with the Ca ionophore A 23187 (Sigma) and incubated with various concentrations of the drugs tested. The sample containing only buffer was used for the determination of unaffected biosynthesis; the complete inhibition was measured in a sample with 100 μg of NDGA in 1 ml. LTB4 was determined in supernatant using a commercial RIA kit (Amersham).

LTB4 receptor = LTB4 receptor (Cavia porcellus, UniProt H0VYV8); assay: LTB4 receptor binding study; conditions: 3H-LTB4, guinea-pig spleen membranes; for IC50: read-out: Inh. of LTB4 rec. binding, IC50; for inhibition at 20 µM: read-out: Inh. of LTB4 rec. binding, %
Chain of LTB4 receptor (H0VYV8 1-348): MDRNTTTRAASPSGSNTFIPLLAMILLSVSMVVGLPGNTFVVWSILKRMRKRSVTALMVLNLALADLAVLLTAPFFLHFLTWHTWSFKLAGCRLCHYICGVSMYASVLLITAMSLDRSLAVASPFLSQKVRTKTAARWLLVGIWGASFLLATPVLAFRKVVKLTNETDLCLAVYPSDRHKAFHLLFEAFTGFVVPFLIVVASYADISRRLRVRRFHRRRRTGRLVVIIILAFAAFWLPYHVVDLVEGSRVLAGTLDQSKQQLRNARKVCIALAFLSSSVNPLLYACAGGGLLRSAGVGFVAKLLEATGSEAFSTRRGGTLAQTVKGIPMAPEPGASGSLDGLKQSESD
Protocol: LTB4 Receptor Binding Study
A slightly modified method of Cheng and coworkers (Cheng J. B. et al.: J. Pharm. Expl. Ther. 236, 126 (1986)) was used. The membrane fraction was prepared from male guinea-pig spleen; 2 mg of membranes were incubated with 0.3 nM ^3 H-LTB4 at 25° C. for 30 min in 100 μl of the incubated mixture. The nonspecific binding was determined in the presence of 0.1 μM LTB4. The membranes were filtered though Whatman GF/C paper and washed triply with buffer. The radioactivity was measured by liquid scintillation spectrometry, and the specific binding of ^3 H-LTB4 to the receptor was determined.

LTD4 receptor = biological target: T1, LTD4 receptor (Cavia porcellus, UniProt Q2NNR5); assay: LTD4 receptor binding study; conditions: 3H-LTD4, guinea-pig lung membranes; for IC50: read-out: Inh. of LTD4 rec. binding, IC50; for inhibition at 100 µM / inhibition at 20 µM: read-out: Inh. of LTD4 rec. binding, %
T1 construct: The membrane fraction was prepared from male guinea-pig lungs; from tissue; host or cells: male guinea-pig lung membranes
T1 sequence (Q2NNR5 1-340): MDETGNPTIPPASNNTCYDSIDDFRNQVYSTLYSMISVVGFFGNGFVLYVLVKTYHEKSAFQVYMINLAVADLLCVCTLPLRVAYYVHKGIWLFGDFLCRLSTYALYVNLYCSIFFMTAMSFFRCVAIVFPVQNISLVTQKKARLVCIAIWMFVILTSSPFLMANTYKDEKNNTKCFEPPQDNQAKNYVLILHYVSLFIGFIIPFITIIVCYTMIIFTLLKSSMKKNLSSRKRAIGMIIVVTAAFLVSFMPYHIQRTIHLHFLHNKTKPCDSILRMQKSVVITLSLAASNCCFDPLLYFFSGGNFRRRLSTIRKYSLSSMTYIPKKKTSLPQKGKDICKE
Protocol: LTD4 Receptor Binding Study
This study was performed according to the method of Burns and coworkers (Burns R. F. et al.: Life Sci. 33, 645 (1983)). The membrane fraction was prepared from male guinea-pig lungs, and 4 mg of this fraction were incubated with 0.4 nM ^3 H-LTD4 for 60 min at 25° C. in 100 μl of the incubated mixture. The nonspecific binding was determined in the presence of 0.1 μM LTD4. The filtration of the membranes, washing, and radioactivity measurement were as above.

[2] = system: peroxidation of lipids from the hepatic cells membranes; assay: Antioxidant effect in vitro; format: biochemical; conditions: at 100 μg
Excerpt: Antioxidant Effect in vitro
The end-product, malonic dialdehyde, was transformed to coloured complex with thiobarbituric acid and determined spectrophotometrically. The antioxidant effect was expressed in % of peroxidation inhibition in the presence of the compound tested in comparison to a control sample.

Wistar-Han rats = assay: Inhibition of carrageenan edema; format: in vivo; conditions: for inhibition in vivo at 100 mg/kg: Rattus norvegicus, read-out: CE: inhibition of carrageenan-induced edema, % of inh.
rats = assay: Inhibition of carrageenan-induced pleuritis in rats; format: in vivo; conditions: for inhibition in vivo at 100 mg/kg: Rattus norvegicus, po, 4 h
Protocol: Inhibition of Carrageenan-induced Pleuritis in Rats
(Hidaka T. J.: Pharm. Pharmacol. 38, 242 (1986) 1 ml of 0.5% carrageenan solution in saline was administered intrapleurally to experimental animals under mild ether anesthesia. Test drugs were administered in single oral dose 1 h before carrageenan injection, 4 h following the carrageenan application the rats were killed and exudate was withdrawn from opened pleural cavity. The volume of exudate, its cellularity and total cell number were determined.

male mice = assay: Inhibition of arachidonic acid-induced ear inflammation in mice; format: in vivo; conditions: Mus musculus, po, 1 h
Protocol: Inhibition of Arachidonic Acid-induced Ear Inflammation in Mice (Opas E. E. et al.: J. Invest. Dermatol. 84, 253 (1985) Ear inflammation was induced in male mice by 20 μl of arachidonic acid dissolved in acetone (concentration 100 mg/ml). The mice were sacrificed 1 h after application of arachidonic acid and the ears were cut off by standard means. The other, vehicle-treated ear of the same animal served as a control. The degree of ear hyperemia and the weight of ear lobes were evaluated. Test compounds were administered orally 1 h before the induction of inflammation.

[3] = read-out: Experimental pleuritis, A: volume of exudate in pleural cavity, % of inh.
[4] = read-out: Experimental pleuritis, C: cellularity in a volume unit, % of inh.
[5] = values with mark n: p > 0.05, read-out: Ear edema, D: edema of ear lobe, % of inh.
[6] = values with mark n: p > 0.05, read-out: Ear edema, E: hyperemia of ear lobe, % of inh.
[7] = dose 100 mg/kg, oral, values with mark n: p > 0.05, read-out: Experimental pleuritis, A: volume of exudate in pleural cavity, % of inh.
[8] = dose 100 mg/kg, oral, values with mark n: p > 0.05, read-out: Experimental pleuritis, B: number of cells, % of inh.
[9] = dose 100 mg/kg, oral, values with mark n: p > 0.05, read-out: Experimental pleuritis, C: cellularity in a volume unit, % of inh.
[10] = dose 100 mg/kg, oral, values with mark n: p > 0.05, 100 mg/kg

| SMILES | Inh. of LTB4 biosynth., % [1] [%] | IC50 (LTB4 receptor) [µM] | inhibition at 20 µM (LTB4 receptor; at 20 μM) [%] | IC50 (LTD4 receptor) [µM] | inhibition at 100 µM (LTD4 receptor) [%] | Antiox. effect, % of peroxidation inhibition [2] [%] | inhibition in vivo at 200 mg/kg (male mice; [5]) [%] | inhibition in vivo at 200 mg/kg (male mice; [6]) [%] | IC50 [1] [µg/mL] | inhibition in vivo at 100 mg/kg (Wistar-Han rats; dose 100 mg/kg) [%] | inhibition in vivo at 100 mg/kg (rats; [7]) [%] | inhibition in vivo at 100 mg/kg (rats; [8]) [%] | further results |
| --- | --- | --- | --- | --- | --- | --- | --- | --- | --- | --- | --- | --- | --- |
| CCCc1c(OCCCOc2ccc(Sc3ccccc3C(=O)O)cc2)ccc(C(C)=O)c1O [Compound 4] | 100 | 13 | 47 | 10.4 | 100 | 34 | 6 | 2 |  |  |  |  | inhibition in vivo at 100 mg/kg (Wistar-Han rats): 35%; inhibition in vivo at 100 mg/kg (rats; [3]): 10%; inhibition in vivo at 100 mg/kg (rats; read-out: Experimental pleuritis, B: number of cells, % of inh.): 35%; inhibition in vivo at 100 mg/kg (rats; [4]): 30% |
| O=C(O)Cc1ccccc1Sc1ccc(OCc2ccc3ccccc3n2)cc1 [Compound 29, 2-(4-(Quinoline-2-ylmethoxy)phenylsulfanyl)phenylacetic Acid] | 44 | 24 | 50 | 0.6 | 95 | 0 | 2 | 22 | 28 (≈ 69.7 µM) | 52 | 3 | 27 | inhibition in vivo at 100 mg/kg (rats; [9]): 25% |
| CCCc1c(OCCCOc2cccc(Sc3ccccc3C(=O)O)c2)ccc(C(C)=O)c1O [Compound 6, 2-(3-(3-(4-Acetyl-3-hydroxy-2-propylphenoxy)propoxy)phenylsulfanyl)benzoic Acid] | 73 | 20.6 | 50 | 4.1 | 100 | 19 | 9 | 8 |  | 22 | 26 | 29 | inhibition in vivo at 100 mg/kg (rats; [9]): 6% |
| NC(=O)N1C(=O)C(=C(O)c2cccs2)c2cc(Cl)ccc21 [Tenidap Na^+, reference compound] | 100 |  | 8 | 418 | 10 |  | 14 | 76 | 1.04 (≈ 3.24 µM) | 61 |  | 73 | inhibition in vivo at 100 mg/kg (rats; [3]): 72%; inhibition in vivo at 100 mg/kg (rats; [4]): 6% |
| O=C(O)Cc1ccccc1Sc1ccc(OCc2ccc3cc(Cl)ccc3n2)cc1 [Compound 32, 2-(4-(6-Chloroquinoline-2-ylmethoxy)phenylsulfanyl)phenylacetic Acid] | 62 | 30 | 38 | 1 | 81 | 14 |  |  |  |  |  |  |  |
| O=C(O)c1ccccc1Sc1ccc(OCCCCN2CCN(Cc3ccc(Cl)cc3)CC2)cc1 [Compound 14] | 100 |  | 16 | 33 | 86 |  |  |  | 9.5 (≈ 18.6 µM) |  |  |  |  |
| COc1cc(C(=O)NS(=O)(=O)c2ccccc2C)ccc1Cc1cn(C)c2ccc(NC(=O)OC3CCCC3)cc12 [Accolate, reference compound] | 98 |  | 0 | 0.03 | 94 |  |  |  | 1.12 (≈ 1.95 µM) |  |  |  |  |
| O=C(O)c1ccccc1Sc1ccc(OCCN2CCN(Cc3ccc(Cl)cc3)CC2)cc1 [Compound 11, Hydrogenmaleate of 2-(4-(2-(1-(4-Chlorobenzyl)piperazin-4-yl)ethoxy)-phenylsulfanyl)benzoic Acid] | 97 |  | 25 | 120 | 36 | 10 | 22 | 0 | 0.02 (≈ 0.0414 µM) | 33 |  |  |  |
| O=C(O)Cc1ccc(Sc2ccc(OCc3ccc4ccccc4n3)cc2)cc1 [Compound 30, 4-(4-(Quinoline-2-ylmethoxy)phenylsulfanyl)phenylacetic Acid] | 94 | 20.5 | 43 | 2.3 |  | 14 |  |  | 0.004 (≈ 0.00996 µM) | 41 | 27 | 30 | inhibition at 20 µM (LTD4 receptor): 80%; inhibition in vivo at 100 mg/kg (rats; [9]): 2% |
| COC(=O)c1ccccc1Sc1cccc(OCCCN2CCN(CCO)CC2)c1 [Compound 15, Bis-hydrogenmaleate of Methyl 2-(3-(3-(1-(2-hydroxyethyl)piperazin-4-yl)-propoxy)phenyl-sulfanyl)benzoate] | 88 |  |  |  | 22 | 0 | 7 | 3 | 12.6 (≈ 29.3 µM) | 9 | 2 | 15 |  |
| O=C(O)c1ccc(Sc2ccc(OCc3ccc4ccccc4n3)cc2)cc1 [Compound 24, Tromethammonium salt of 4-(4-(Quinoline-2-ylmethoxy)phenylsulfanyl)benzoic Acid] | 99 | 14.7 |  | 0.31 |  | 13 |  |  |  |  |  |  | Inh. of LTB4 biosynth., IC50 [1]: 0.18 µg/mL; Inh. of LTB4 rec. binding, % (LTB4 receptor; at 20 μM): 42%; inhibition at 20 µM (LTD4 receptor): 95%; CE: inhibition of carrageenan-induced edema, % of inh. (Wistar-Han rats; dose 100 mg/kg): 27%; Experimental pleuritis, A: volume of exudate in pleural cavity, % of inh. (rats; [10]): 23%; Experimental pleuritis, B: number of cells, % of inh. (rats; [10]): 32%; Experimental pleuritis, C: cellularity in a volume unit, % of inh. (rats; [10]): 6% |
